According to ChEMBL document CHEMBL5154644, “Design, Synthesis, and Structure-Activity Relationship Optimization of Pyrazolopyrimidine Amide Inhibitors of Phosphoinositide 3-Kinase γ (PI3Kγ)” (J Med Chem, 2022):

Legend:
Homo sapiens [1] = species: Homo sapiens; experiment: Selectivity ratio of IC50 for inhibition of PI3Kdelta (unknown origin) to IC50 for inhibition of PI3Kgamma (unknown origin)
[2] = target: T1, Phosphatidylinositol 4,5-bisphosphate 3-kinase catalytic subunit gamma isoform (Homo sapiens, UniProt P48736); experiment: Inhibition of PI3Kgamma (unknown origin) in […] stimulated human THP-1 cells assessed as reduction in Akt phosphorylation level at Ser473 residue preincubated for 60 mins followed by rhMCP-1 stimulation and measured after 2 mins by AlphaLisa assay; type: cell-based
[3] = Metabolic stability in human hepatocytes assessed as intrinsic clearance per 10^6 cells at 0.5 uM by LC-MS/MS analysis; type: ADME, cell-based, Hepatocyte; conditions: read-out: CLH
[4] = Metabolic stability in rat hepatocyte assessed as intrinsic clearance per 10^8 cells at 0.5 uM by LC-MS/MS analysis; type: ADME, cell-based; conditions: hepatocytes
Homo sapiens [5] = species: Homo sapiens; experiment: Selectivity ratio of IC50 for inhibition of PI3Kalpha (unknown origin) to IC50 for inhibition of PI3Kgamma (unknown origin)
[6] = target: T1, Phosphatidylinositol 4,5-bisphosphate 3-kinase catalytic subunit gamma isoform; experiment: Inhibition of PI3Kgamma (unknown origin) using PIP2 as substrate preincubated for 1 hr followed by substrate addition and measured after 60 mins in presence of ATP by ADP-glo assay
[7] = target: Phosphatidylinositol 4,5-bisphosphate 3-kinase catalytic subunit alpha isoform (Homo sapiens, UniProt P42336); experiment: Inhibition of PI3Kalpha (unknown origin) using PIP2 as substrate preincubated for 1 hr followed by substrate addition and measured after 60 mins in presence of ATP by ADP-glo assay
[8] = target: T2, Phosphatidylinositol 4,5-bisphosphate 3-kinase catalytic subunit delta isoform (Homo sapiens, UniProt O00329); experiment: Inhibition of PI3Kdelta (unknown origin) using PIP2 as substrate preincubated for 1 hr followed by substrate addition and measured after 60 mins in presence of ATP by ADP-glo assay
T2 sequence (O00329 whole entry): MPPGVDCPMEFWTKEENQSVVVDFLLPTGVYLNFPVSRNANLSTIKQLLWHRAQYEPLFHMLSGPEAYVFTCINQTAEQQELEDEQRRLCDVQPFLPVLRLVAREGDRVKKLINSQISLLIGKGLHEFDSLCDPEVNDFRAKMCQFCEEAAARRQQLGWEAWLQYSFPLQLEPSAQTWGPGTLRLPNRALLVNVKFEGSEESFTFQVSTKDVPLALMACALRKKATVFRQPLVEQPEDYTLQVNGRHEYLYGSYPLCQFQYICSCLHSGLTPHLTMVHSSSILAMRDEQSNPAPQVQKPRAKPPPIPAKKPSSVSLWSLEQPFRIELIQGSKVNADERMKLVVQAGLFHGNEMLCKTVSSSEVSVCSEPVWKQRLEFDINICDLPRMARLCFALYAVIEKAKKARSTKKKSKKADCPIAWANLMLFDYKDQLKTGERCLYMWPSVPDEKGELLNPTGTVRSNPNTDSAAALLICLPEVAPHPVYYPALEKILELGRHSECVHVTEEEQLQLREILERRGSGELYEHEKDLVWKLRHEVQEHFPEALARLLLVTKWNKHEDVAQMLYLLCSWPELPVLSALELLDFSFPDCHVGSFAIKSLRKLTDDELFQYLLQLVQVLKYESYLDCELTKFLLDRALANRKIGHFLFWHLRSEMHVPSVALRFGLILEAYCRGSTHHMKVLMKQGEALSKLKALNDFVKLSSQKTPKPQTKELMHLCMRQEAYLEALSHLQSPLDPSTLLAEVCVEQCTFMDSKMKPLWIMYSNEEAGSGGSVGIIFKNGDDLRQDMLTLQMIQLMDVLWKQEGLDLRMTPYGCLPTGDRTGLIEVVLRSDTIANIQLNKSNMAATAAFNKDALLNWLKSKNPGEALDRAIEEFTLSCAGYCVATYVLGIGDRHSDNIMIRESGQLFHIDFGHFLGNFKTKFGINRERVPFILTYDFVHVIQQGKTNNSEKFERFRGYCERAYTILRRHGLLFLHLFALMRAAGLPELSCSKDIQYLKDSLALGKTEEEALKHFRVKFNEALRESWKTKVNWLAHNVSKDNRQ

CYP3A4 = CYP3A4 (Homo sapiens, UniProt P08684); experiment: in vitro; conditions: human liver microsomes, probe midazolam
Chain of CYP3A4 (P08684 whole entry): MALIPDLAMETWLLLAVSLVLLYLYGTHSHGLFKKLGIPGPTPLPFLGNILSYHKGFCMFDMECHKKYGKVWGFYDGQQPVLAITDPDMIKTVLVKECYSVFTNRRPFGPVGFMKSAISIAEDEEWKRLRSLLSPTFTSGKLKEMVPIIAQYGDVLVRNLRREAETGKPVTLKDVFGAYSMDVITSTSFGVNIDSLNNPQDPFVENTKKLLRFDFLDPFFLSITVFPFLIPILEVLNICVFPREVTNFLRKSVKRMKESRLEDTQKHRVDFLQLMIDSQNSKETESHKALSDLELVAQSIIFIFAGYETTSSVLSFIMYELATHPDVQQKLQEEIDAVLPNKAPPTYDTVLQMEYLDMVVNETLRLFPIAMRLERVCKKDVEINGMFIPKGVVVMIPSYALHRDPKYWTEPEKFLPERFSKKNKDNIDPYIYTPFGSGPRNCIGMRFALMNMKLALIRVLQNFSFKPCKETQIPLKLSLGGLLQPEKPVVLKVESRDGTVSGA
Description: Time dependent inhibition of CYP3A4 in human liver microsomes at 10 uM using midazolam as substrate preincubated for 30 mins in presence of NADPH by LC/MS/MS analysis relative to control

Chain of Phosphatidylinositol 4,5-bisphosphate 3-kinase catalytic subunit alpha isoform (P42336 whole entry, canonical isoform): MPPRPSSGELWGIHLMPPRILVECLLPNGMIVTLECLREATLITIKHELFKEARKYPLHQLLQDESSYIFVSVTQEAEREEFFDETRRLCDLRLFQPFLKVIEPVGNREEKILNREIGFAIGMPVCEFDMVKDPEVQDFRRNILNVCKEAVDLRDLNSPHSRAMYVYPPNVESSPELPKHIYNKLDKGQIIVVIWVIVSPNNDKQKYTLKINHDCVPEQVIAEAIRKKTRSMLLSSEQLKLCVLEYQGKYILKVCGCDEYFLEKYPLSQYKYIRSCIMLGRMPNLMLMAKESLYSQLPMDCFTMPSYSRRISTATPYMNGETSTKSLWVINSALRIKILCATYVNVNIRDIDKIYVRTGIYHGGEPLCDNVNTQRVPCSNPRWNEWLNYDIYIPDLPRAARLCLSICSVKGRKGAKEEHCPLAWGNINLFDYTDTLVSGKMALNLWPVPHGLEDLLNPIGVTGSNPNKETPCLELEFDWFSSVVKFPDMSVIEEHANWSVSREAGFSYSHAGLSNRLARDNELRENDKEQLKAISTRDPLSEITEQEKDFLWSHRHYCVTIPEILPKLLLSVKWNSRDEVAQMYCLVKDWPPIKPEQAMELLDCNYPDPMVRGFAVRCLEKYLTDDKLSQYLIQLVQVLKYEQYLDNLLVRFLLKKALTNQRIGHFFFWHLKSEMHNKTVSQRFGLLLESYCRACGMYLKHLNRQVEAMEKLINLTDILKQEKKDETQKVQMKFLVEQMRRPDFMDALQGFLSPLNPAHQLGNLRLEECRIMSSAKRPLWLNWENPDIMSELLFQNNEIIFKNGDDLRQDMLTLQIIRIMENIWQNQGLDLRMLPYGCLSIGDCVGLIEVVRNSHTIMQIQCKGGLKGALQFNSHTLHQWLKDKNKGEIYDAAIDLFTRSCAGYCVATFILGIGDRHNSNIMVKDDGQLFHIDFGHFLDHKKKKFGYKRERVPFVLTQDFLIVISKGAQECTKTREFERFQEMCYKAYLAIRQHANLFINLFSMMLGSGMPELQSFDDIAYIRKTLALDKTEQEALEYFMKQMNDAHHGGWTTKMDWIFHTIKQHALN
T1 sequence (P48736 whole entry, canonical isoform): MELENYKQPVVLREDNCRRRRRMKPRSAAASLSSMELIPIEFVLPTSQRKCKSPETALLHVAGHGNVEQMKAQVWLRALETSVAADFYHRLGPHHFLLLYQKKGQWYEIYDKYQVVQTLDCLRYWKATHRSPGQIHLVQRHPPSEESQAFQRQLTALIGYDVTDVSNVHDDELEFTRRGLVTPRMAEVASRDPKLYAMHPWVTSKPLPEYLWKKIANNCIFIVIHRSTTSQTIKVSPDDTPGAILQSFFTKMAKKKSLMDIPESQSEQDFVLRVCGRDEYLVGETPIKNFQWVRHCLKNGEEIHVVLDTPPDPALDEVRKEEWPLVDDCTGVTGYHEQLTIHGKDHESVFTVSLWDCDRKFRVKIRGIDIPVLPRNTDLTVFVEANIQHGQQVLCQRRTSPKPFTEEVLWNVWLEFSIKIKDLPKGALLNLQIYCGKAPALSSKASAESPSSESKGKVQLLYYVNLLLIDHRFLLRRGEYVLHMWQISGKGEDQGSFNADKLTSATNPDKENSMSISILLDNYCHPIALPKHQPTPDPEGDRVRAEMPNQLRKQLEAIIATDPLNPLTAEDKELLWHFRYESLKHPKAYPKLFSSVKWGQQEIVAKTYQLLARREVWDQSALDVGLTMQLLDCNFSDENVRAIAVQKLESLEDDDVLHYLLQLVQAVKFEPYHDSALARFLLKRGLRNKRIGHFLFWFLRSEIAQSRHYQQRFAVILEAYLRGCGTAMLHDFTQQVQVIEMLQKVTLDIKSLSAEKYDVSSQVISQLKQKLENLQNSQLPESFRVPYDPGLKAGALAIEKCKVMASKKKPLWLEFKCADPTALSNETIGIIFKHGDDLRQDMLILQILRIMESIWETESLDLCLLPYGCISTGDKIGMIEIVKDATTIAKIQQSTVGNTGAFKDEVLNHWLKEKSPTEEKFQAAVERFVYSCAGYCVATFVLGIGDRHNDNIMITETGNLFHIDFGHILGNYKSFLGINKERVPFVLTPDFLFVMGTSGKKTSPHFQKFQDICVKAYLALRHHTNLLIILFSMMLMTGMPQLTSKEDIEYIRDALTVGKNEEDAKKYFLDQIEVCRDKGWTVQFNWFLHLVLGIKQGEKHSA

Ratio IC50 (Homo sapiens [1]) | IC50 [2] [nM] | hepatocyte CLint at 0.5 µM [3] [µL/min/1e6 cells] | hepatocyte intrinsic clearance [4] [µL/min] | Ratio IC50 (Homo sapiens [5]) | IC50 [6] [nM] | IC50 [7] [nM] | IC50 [8] [nM] | inhibition at 30 min, 10 µM (CYP3A4) [%] | Structure (SMILES)
2250 | 276 | 4.74 | 19.3 | > 4960 | 2 | > 10000 | 4530 | – | Cc1cc(-c2ccn3nc(N)c(C(=O)N[C@H]4CC[C@H](N)CC4)c3n2)cc2c1C(=O)N([C@@H](C)C1CC1)C2
124 | 50 | 4.89 | 4.14 | – | 3 | 512 | 376 | 35 | C[C@@H](C1CC1)N1Cc2cc(-c3ccn4nc(N)c(C(=O)NC5CC5)c4n3)cc(S(=O)(=O)C3CCC3)c2C1=O
323 | 150 | 6.52 | 3.65 | – | 8.5 | 3680 | 2750 | 55 | CC(C)[C@H](N1Cc2cc(-c3ccn4nc(N)c(C(=O)NC5CC5)c4n3)cc(NS(C)(=O)=O)c2C1=O)C(F)(F)F
2780 | 88 | < 1.2 | < 1.2 | – | 1.7 | 5360 | 4580 | 22 | CS(=O)(=O)Nc1cc(-c2ccn3nc(N)c(C(=O)NC4CC4)c3n2)cc2c1C(=O)N([C@@H](C1CC1)C(F)(F)F)C2
– | 468 | 27.2 | 10.3 | – | – | – | – | 67 | Cc1cc(-c2ccn3ncc(-c4cnn(C)c4)c3n2)cc2c1C(=O)N([C@@H](C)C1CC1)C2
> 566 | 795 | – | – | > 566 | 17.7 | > 10000 | > 10000 | – | Cc1cc(-c2ccn3nc(N)c(C(=O)NC4CC4)c3n2)cc2c1C(=O)N([C@@H](C1CC1)C(F)(F)F)C2
32 | 338 | – | – | 21 | 5.6 | 118 | 179 | – | CCN1Cc2cc(-c3ccn4nc(N)c(C(=O)NC5CC5)c4n3)cc(C)c2C1=O
9 | 397 | – | – | 13 | 2.1 | 29 | 20 | – | Cc1cc(-c2ccn3nc(N)c(C(=O)N[C@H]4CC[C@H](C(=O)O)CC4)c3n2)cc2c1C(=O)N([C@@H](C)C1CC1)C2
84 | 258 | – | – | 42 | 10.1 | 431 | 911 | – | Cc1cc(-c2ccn3nc(N)c(C(=O)NC4CC4)c3n2)cc2c1C(=O)N(CC1CC1)C2
65 | 96 | 1.61 | 3.82 | 274 | 1.3 | 363 | 86 | – | CNS(=O)(=O)c1cc(-c2ccn3nc(N)c(C(=O)N[C@@H](CO)C4CC4)c3n2)cc2c1C(=O)N([C@@H](C)C(F)(F)F)C2
89 | 16 | < 1.2 | < 1.2 | – | 0.8 | 97 | 68 | 14 | C[C@H](N1Cc2cc(-c3ccn4nc(N)c(C(=O)NC5CC5)c4n3)cc(NS(C)(=O)=O)c2C1=O)C(F)(F)F
22 | 32 | 2.77 | < 1.2 | 53 | 0.9 | 49 | 20 | – | CNS(=O)(=O)c1cc(-c2ccn3nc(N)c(C(=O)N[C@H]4CC[C@](C)(O)CC4)c3n2)cc2c1C(=O)N([C@@H](C)C(F)(F)F)C2
